Measurements reported in patent US10668174B2, “Organ protection in PSMA-targeted radionuclide therapy of prostate cancer” (Molecular Insight Pharmaceuticals, Inc., priority 2014, dated 2020).
Where two headings read alike, the source gives them in different places.

Assays:
[1] = doses of up to 750 mg (~10 mg/kg), 25 healthy subjects, mean body weight 71 kg; cited from earlier work
[2] = PET-based dosimetry; cited from earlier work
LNCaP tumors = assay: Example 1: planar scintigraphy of 125I-MIP-1095, PMPA injected 16 hours later; format: in vivo, BALB/c nude mice
Procedure: Mice bearing LNCaP tumors of 1.5 cm diameter were injected via the tail vein with 37 MBq of ^125I-MIP-1095 in 100 μl at a specific activity of >1,000 mCi/[…]. Mice were imaged at a baseline time of 16 hours post injection giving enough time for tracer clearance from the blood stream and kidney calices.

PSMA = settings: simultaneous coinjection of 50 mg/kg PMPA; cited from earlier work
LNCaP tumor = assay: Example 3: 68Ga-MIP-1558 animal PET, PMPA after 1 hour baseline scan; format: in vivo, BALB/c nude mice; settings: for kidney uptake SUVmax of 68Ga-MIP1558: PMPA 50 mg/kg; for mean tumor uptake SUVmax of 68Ga-MIP1558: after PMPA 50 mg/kg
Procedure: (§1) MIP-1558 was evaluated after labeling with ^68Ga and imaging in an animal PET. […] Both tumor and kidney uptake was determined in a volume of interest (VOI).

[3] = Example 3: serial 68Ga-MIP-1558 PET of the salivary region with saline or PMPA; format: in vivo; settings: rats, PMPA 10 mg/kg
Procedure: as §1

[4] = group 2, PMPA 0.5 mg/kg IV 16 hours post tracer
[5] = groups 3, 4 and 5, 0.05, 0.15 and 0.5 mg/kg

Procedure for LNCaP xenografts: Blood and tissues were collected 18 hours after intravenous injection of ^125I-MIP-1095 (2 hours after displacing agent injections). Gamma-counter readouts were obtained for each sample and expressed as percent injected dose per gram of tissue using gamma-counter readout of the dosing solution as a reference.
The dosing solution was prepared fresh the day of administration.
Cold MIP-1095 was stored protected from light at −80° C. until use. The compound was formulated in a vehicle of sterile saline. For dosing of the 0.50 mg/kg group, the cold MIP-1095 was placed into a sterile vial and the appropriate amount of saline was added and mixed well by vortexing to form a clear solution with a pH value of 6.96. Dosing solutions for the 0.15 mg/kg and 0.05 mg/kg groups were prepared by direct (not serial) dilution of the dosing solution from the 0.5 mg/kg group with complete vehicle. The dosing solutions were prepared fresh the day of administration.
For dosing, the stock solution (colorless) was thawed in a 37° C. water bath and diluted 1:1 with sterile saline for a fixed 0.1 mCi/ml solution for dosing.
The pre-implantation cell viability was 97%. […] The cell suspension was maintained on wet ice during implantation. Following implantation, an aliquot of the remaining cells was diluted with a trypan blue solution and counted to determine the post-implantation cell viability (96%).
Test animals were implanted subcutaneously, high in the axilla (just under the fore limb) on Day 0 with 5.0E+06 cells in 0.2 ml of 50% serum-free medium:50% Matrigel® using a 27-gauge needle and syringe.
All mice were sorted into study groups based on caliper measurement estimation of tumor burden. The mice were distributed to ensure that the mean tumor burden for all groups was within 10% of the overall mean tumor burden for the study population. Treatment began on Day 25. Mice were administered test agent via intravenous injections. The mice were administered a fixed volume injection of 100 μl (approximately 4 ml/kg) via the tail vein, using a 28-gauge needle and insulin syringe. A fresh needle and syringe was used for each mouse.
Group 1—^125I-MIP-1095+Saline, 0.4 mCi/kg (0.005 mg/kg)+100 μl fixed volume, IV+IV, “Control”; test article at 0 hours, saline 16 hours post test article.

In the case of `O=C(O)CCC(CCCS)C(=O)O` (stereo not drawn) [2-MPPA, 2-(3-mercaptopropyl)pentanedioic acid], the safety and tolerability [1] is given as “safe and generally well tolerated”.
For `O=C(O)CC[C@H](NC(=O)N[C@@H](CCCCNC(=O)Nc1ccc([123I])cc1)C(=O)O)C(=O)O` [124I-MIP1095], the “off-target radiation dose, kidneys” value [2] is given as 1.4 mSv/MBq, the “off-target radiation dose, liver” value [2] is given as 1.7 mSv/MBq and the “off-target radiation dose, salivary glands” value [2] is given as 3.8 mSv/MBq. For the same molecule, the “radiation dose, red marrow” value [2] was 0.37 mSv/MBq.
In the case of `O=C(O)CC[C@H](NC(=O)N[C@@H](CCCCNC(=O)Nc1ccc([123I])cc1)C(=O)O)C(=O)O` [125I-MIP-1095], the “exposure in all other tissues and organs (including salivary glands)” value (LNCaP xenografts; male, Taconic Nude (CrTac:NCr-Foxn1nu), mouse, in vivo, 18 h) is reported as “less than 1 % of ID/g” and the “exposure in LNCaP tumors relative to other tissues” value (LNCaP xenografts; mouse, in vivo, iv) is reported as “highest exposure”.
For `O=C(O)CC[C@H](NC(=O)N[C@@H](CCC(=O)N[C@@H](CCCCN(Cc1nccn1CC(=O)N(CC(=O)O)CC(=O)O)Cc1nccn1CC(=O)N(CC(=O)O)CC(=O)O)C(=O)O)C(=O)O)C(=O)O` [MIP-1404], the “washout from the kidneys without intervention” value (LNCaP; mouse, in vivo) was “fast washout”.
In the case of `O=C(O)CCC(CP(=O)(O)O)C(=O)O` (stereo not drawn) [PMPA, 2-(phosphonomethyl)pentanedioic acid], the “difference in MIP-1404 tumor uptake vs controls” value (LNCaP; PMPA 50 mg/kg) is reported as “not significant”, the “washout of MIP-1404 from kidney vs controls” value (LNCaP; PMPA 50 mg/kg after baseline scan, at 2 and 4 hours) is reported as “significantly (p<0.01) enhanced” and the “residual tumor uptake of 125I-MIP-1095, % of 16 hour baseline” value (LNCaP tumors; 2 hours after PMPA 0.2 mg/kg) is reported as 98%. The “residual tumor uptake of 125I-MIP-1095, % of 16 hour baseline” value (LNCaP tumors; 2 hours after PMPA 1 mg/kg) was 93%, the “residual tumor uptake of 125I-MIP-1095, % of 16 hour baseline” value (LNCaP tumors; 2 hours after PMPA 10 mg/kg) was 77% and the “residual tumor uptake of 125I-MIP-1095, % of 16 hour baseline” value (LNCaP tumors; 2 hours after PMPA 50 mg/kg) was 75%. The “decrease in tumor uptake” value (LNCaP tumors; PMPA 0.2 mg/kg) was less than 5%, the “renal displacement of tracer” value (LNCaP tumors; PMPA 0.2 mg/kg (lower dose)) was “only sub-totally displaced” and the “displacement of 125I-MIP-1095 from the kidneys” value (LNCaP tumors; PMPA 0.2 mg/kg, 16 hours after tracer) was “high significant (p<0.01) displacement”. The “effect on tumor uptake” value (LNCaP tumors; PMPA 1.0 mg/kg) was less than 10%, the “renal displacement of tracer” value (LNCaP tumors; PMPA 1.0 mg/kg) was “near total renal displacement” and the “kidney washout of 125I-MIP-1095 vs 0.2 mg/kg dose” value (LNCaP tumors; PMPA 1 mg/kg, p<0.01) was “even higher kidney washout”. For the same molecule, the “displacement of renal activity of 125I-MIP-1095” value (LNCaP tumors; PMPA 16 hours after MIP-1095, all PMPA doses (0.2-50 mg/kg)) was “rapid and quantitative relevant displacement”, the “kidney-protective effect vs 1 mg/kg” value (LNCaP tumors; PMPA doses greater than 1 mg/kg (10, 50 mg/kg)) was “did not improve the kidney-protective effect” and the “blocking of radiolabeled MIP-1095 binding sites in tumor and kidneys” value (PSMA) was “complete blocking”. The “exposure of 125I-MIP-1095 in LNCaP tumors and all other organs and tissues” value (LNCaP xenografts; [4]) was “little changed”, the “exposure of 125I-MIP-1095 in the kidneys” value (LNCaP xenografts; [4]) was “greatly reduced” and the “residual kidney uptake of MIP-1404, % of baseline” value (PMPA 1 mg/kg, 2 hours) was 13%. The “residual kidney uptake of MIP-1404, % of baseline” value (PMPA 1 mg/kg, 4 hours) was 9%, the “residual kidney uptake of MIP-1404, % of baseline” value (PMPA 10 mg/kg, 2 hours) was 15% and the “residual kidney uptake of MIP-1404, % of baseline” value (PMPA 10 mg/kg, 4 hours) was 10%. For the same molecule, the “residual kidney uptake of MIP-1404, % of baseline” value (PMPA 50 mg/kg, 2 hours) was 11%, the “residual kidney uptake of MIP-1404, % of baseline” value (PMPA 50 mg/kg, 4 hours) was 7% and the “kidney uptake SUVmax of 68Ga-MIP1558” value (LNCaP tumor; 2 hours post injection) was 1.87. For the same molecule, the “kidney uptake SUVmax of 68Ga-MIP1558” value (LNCaP tumor; 3 hours post injection) was 1.77, the “mean tumor uptake SUVmax of 68Ga-MIP1558” value (LNCaP tumor; 2 hours post injection) was 0.40 and the “mean tumor uptake SUVmax of 68Ga-MIP1558” value (LNCaP tumor; 3 hours post injection) was 0.39. For the same molecule, the “change of salivary region uptake due to the PMPA intervention” value [3] was “there does not appear to be a measurable change”, the “salivary region SUVmax of 68Ga-MIP-1558, mean” value ([3]; 1 hour post injection) was 0.82 and the “salivary region SUVmax of 68Ga-MIP-1558, mean” value ([3]; 3 hours post injection) was 0.23.
For `O=C(O)CC[C@H](NC(=O)N[C@@H](CCCCNC(=O)Nc1ccc(I)cc1)C(=O)O)C(=O)O` [cold MIP-1095], the “exposure in other organs” value (LNCaP xenografts; group 4 (0.15 mg/kg)) was “little changed”, the “reduction of LNCaP tumors exposure compared to negative control” value (LNCaP xenografts; group 4 (0.15 mg/kg)) was 1.2 fold and the “reduction of kidney exposure compared to negative control” value (LNCaP xenografts; group 4 (0.15 mg/kg)) was 5 fold. The 125I-MIP-1095 kidney exposure (LNCaP xenografts; [5]) was “dose-dependently reduced”, the LNCaP tumors exposure (LNCaP xenografts; [5]) was “dose-dependent decrease” and the “liver, stomach, large and small intestines exposure” value (LNCaP xenografts; [5]) was “dose-dependent increase”. The “reduction in kidney exposure compared with positive control” value (LNCaP xenografts; highest dose (0.5 mg/kg)) was “equivalent to the one observed for positive control”.
